In patent publication US12280040B2, “Compositions and methods of a dihydroisoxazole compound that reduces ectoparasite infestations on fish” (EVAH Atlantic Inc., priority 2023, dated 2025):

Assays:
Lepeophtheirus salmonis = assay: Efficacy of medicated feed against an existing experimental sea lice infestation on Atlantic salmon post-smolts (Example 1); assay type: in vivo
Procedure: A randomized, blinded, parallel-group, negative-controlled study was conducted in which, the active ingredient was administered in medicated feed to laboratory-maintained Atlantic salmon (Salmo salar) post-smolts in seawater. Smolts were experimentally infested with sea lice (Lepeophtheirus salmonis) under laboratory conditions prior to being fed the medicated diet to assess the efficacy of the active ingredient in reducing the number of sea lice/fish.
Healthy Atlantic salmon post-smolts (n=750) were selected for enrollment and distributed sequentially across ten (10) study tanks. Fish were weighed individually during the allocation of fish to tanks on study day (SD)-95, with SD 0 serving as the first day of treatment. Fish were weighed on SD −2, +8, +18, +22, and +30. The fish weights on SD −2 were used to estimate the average weight of all fish and used to determine the feeding amount during the treatment period (SD 0−+6). A target of total of 10 fish/tank were lethally sampled, lice-counted, and weight and length were measured. The mean weight of fish in tanks on SD −2 was 829.9±161.7 g.
Atlantic salmon post-smolts were infested once with sea lice using an experimental challenge model. About 50 copepodids (Lepeophtheirus salmonis) per fish were added to each tank on SD −17. During the study the water temperature varied between 8 and 12° C. The water oxygen saturation was consistently above 80% throughout the study.
Five treatment groups were randomly assigned to ten study tanks so that there were 2 tanks per treatment group. Study personnel were blinded as to the identity of the treatments for each tank.
Sea lice were counted four times during the study. All sampled fish were euthanized and lice counted. The baseline count occurred on SD −2 (with 10 fish per tank), corresponding to ˜160 degree days (15 d) post-infestation. The time was sufficient for lice development to the chalimus stage. Count 1 occurred on SD +8 (with 20 fish per tank) corresponding to ˜260 degree days (25 d) post infestation and 2 days post treatment. The time was sufficient for lice development into chalimus and pre-adult stages in the control tanks. Count 2 occurred on SD +18 (with 20 fish per tank) corresponding to ˜360 degree days (35 d) post infestation and 12 days post treatment. The time was sufficient for lice development into adult males and females in the control tanks. Count 3 occurred on SD +22 (with 20 fish per tank) corresponding to ˜400 degree days (39 d) post infestation and 16 days post treatment. The time was sufficient for lice development into adult males and females with no chalimus stages present in the control tanks.
Medicated feed was prepared by dry coating commercially available fish feed pellets with a premix containing the active ingredient to reach a content of about 1.6, 4.0. 8.0 and 19.9 mg/kg. The fish pellets were then coated with feed grade herring fish oil at an inclusion rate of about 0.75% w/w (7.5 g/kg feed) The consumption rate of the medicated feed was set to 0.628% body weight.
Treatment efficacy was computed for total number of sea lice/fish and total number of mobile life stages, i.e., preadult & adult sea lice/fish for each post-treatment sea lice counting occasion. For the total number of attached/fish, treatment efficacy was computed at the first count post-treatment. Percent efficacy was computed using Abbott's formula for each treatment group compared to control as follows:
[formula] where MC and MT are the arithmetic means of sea lice counts in the untreated control and S-roxapin-treated groups, respectively.
Treatments were considered efficacious when the percent efficacy was ≥90% for treated groups compared to untreated control groups.
The mean sea lice abundance was reported for different parasite life stages (attached, mobile, and total (attached and mobile together)) and computed as the number of lice on salmon divided by the number of sampled fish per tank. […]

Lepeophtherius salmonis = conditions: 1.0 mg/kg/d in medicated feed to Atlantic salmon for 7 consecutive days; lice counted 10 days after end of treatment; cited from earlier work
[1] = 0.010 mg/kg/d in feed 7 d, 2 DPT
[2] = 0.010 mg/kg/d in feed 7 d, 12 DPT
[3] = 0.010 mg/kg/d in feed 7 d, 16 DPT
[4] = 0.025 mg/kg/d in feed 7 d, 2 DPT
[5] = 0.025 mg/kg/d in feed 7 d, 12 DPT
[6] = 0.025 mg/kg/d in feed 7 d, 16 DPT
[7] = 0.050 mg/kg/d in feed 7 d, 2 DPT
[8] = 0.050 mg/kg/d in feed 7 d, 12 DPT
[9] = 0.050 mg/kg/d in feed 7 d, 16 DPT
[10] = 0.125 mg/kg/d in feed 7 d, 2 DPT
[11] = 0.125 mg/kg/d in feed 7 d, 12 DPT
[12] = 0.125 mg/kg/d in feed 7 d, 16 DPT

For `C#CCNC(=O)CNC(=O)c1sc(C2=NO[C@@](c3cc(Cl)c(Cl)c(Cl)c3)(C(F)(F)F)C2)cc1C` [S-roxapin, (S)-3-methyl-N-(2-oxo-2-(prop-2-yn-1-ylamino)ethyl)-5-(5-(3,4,5-trichlorophenyl)-5-(trifluoromethyl)-4,5-dihydroisoxazol-3-yl)thiophene-2-carboxamide], the “Number of Attached Lice/Fish % Efficacy” value (Lepeophtheirus salmonis; [1]) was 96.2%, the “Number of Attached Lice/Fish Mean ± SD” value (Lepeophtheirus salmonis; [1]) was 0.1 ± 0.3 lice/fish and the “Number of Mobile Lice/Fish % Efficacy” value (Lepeophtheirus salmonis; [1]) was 89.1%. The “Number of Mobile Lice/Fish Mean ± SD” value (Lepeophtheirus salmonis; [1]) was 1.7 ± 2.2 lice/fish, the “Total Number of Lice/Fish % Efficacy” value (Lepeophtheirus salmonis; [1]) was 90.3% and the “Total Number of Lice/Fish Mean ± SD” value (Lepeophtheirus salmonis; [1]) was 1.8 ± 2.4 lice/fish. The “Number of Attached Lice/Fish Mean ± SD” value (Lepeophtheirus salmonis; [2]) was 0.0 ± 0.0 lice/fish, the “Number of Mobile Lice/Fish % Efficacy” value (Lepeophtheirus salmonis; [2]) was 94.1% and the “Number of Mobile Lice/Fish Mean ± SD” value (Lepeophtheirus salmonis; [2]) was 1.1 ± 3.0 lice/fish. The “Total Number of Lice/Fish % Efficacy” value (Lepeophtheirus salmonis; [2]) was 94.1%, the “Total Number of Lice/Fish Mean ± SD” value (Lepeophtheirus salmonis; [2]) was 1.1 ± 3.0 lice/fish and the “Number of Attached Lice/Fish Mean ± SD” value (Lepeophtheirus salmonis; [3]) was 0.0 ± 0.0 lice/fish. The “Number of Mobile Lice/Fish % Efficacy” value (Lepeophtheirus salmonis; [3]) was 97.7%, the “Number of Mobile Lice/Fish Mean ± SD” value (Lepeophtheirus salmonis; [3]) was 0.5 ± 0.7 lice/fish and the “Total Number of Lice/Fish % Efficacy” value (Lepeophtheirus salmonis; [3]) was 97.7%. The “Total Number of Lice/Fish Mean ± SD” value (Lepeophtheirus salmonis; [3]) was 0.5 ± 0.7 lice/fish, the “Number of Attached Lice/Fish % Efficacy” value (Lepeophtheirus salmonis; [4]) was 98.5% and the “Number of Attached Lice/Fish Mean ± SD” value (Lepeophtheirus salmonis; [4]) was 0.1 ± 0.1 lice/fish. For the same compound, the “Number of Mobile Lice/Fish % Efficacy” value (Lepeophtheirus salmonis; [4]) was 98.8%, the “Number of Mobile Lice/Fish Mean ± SD” value (Lepeophtheirus salmonis; [4]) was 0.2 ± 0.3 lice/fish and the “Total Number of Lice/Fish % Efficacy” value (Lepeophtheirus salmonis; [4]) was 98.8%. For the same compound, the “Total Number of Lice/Fish Mean ± SD” value (Lepeophtheirus salmonis; [4]) was 0.2 ± 0.3 lice/fish, the “Number of Attached Lice/Fish Mean ± SD” value (Lepeophtheirus salmonis; [5]) was 0.1 ± 0.2 lice/fish and the “Number of Mobile Lice/Fish % Efficacy” value (Lepeophtheirus salmonis; [5]) was 99.9%. For the same compound, the “Number of Mobile Lice/Fish Mean ± SD” value (Lepeophtheirus salmonis; [5]) was 0.0 ± 0.1 lice/fish, the “Total Number of Lice/Fish % Efficacy” value (Lepeophtheirus salmonis; [5]) was 99.5% and the “Total Number of Lice/Fish Mean ± SD” value (Lepeophtheirus salmonis; [5]) was 0.1 ± 0.2 lice/fish. For the same compound, the “Number of Attached Lice/Fish Mean ± SD” value (Lepeophtheirus salmonis; [6]) was 0.0 ± 0.0 lice/fish, the “Number of Mobile Lice/Fish % Efficacy” value (Lepeophtheirus salmonis; [6]) was 99.9% and the “Number of Mobile Lice/Fish Mean ± SD” value (Lepeophtheirus salmonis; [6]) was 0.0 ± 0.1 lice/fish. The “Total Number of Lice/Fish % Efficacy” value (Lepeophtheirus salmonis; [6]) was 99.9%, the “Total Number of Lice/Fish Mean ± SD” value (Lepeophtheirus salmonis; [6]) was 0.0 ± 0.1 lice/fish and the “Number of Attached Lice/Fish % Efficacy” value (Lepeophtheirus salmonis; [7]) was 92.3%. For the same compound, the “Number of Attached Lice/Fish Mean ± SD” value (Lepeophtheirus salmonis; [7]) was 0.3 ± 0.3 lice/fish, the “Number of Mobile Lice/Fish % Efficacy” value (Lepeophtheirus salmonis; [7]) was 99.7% and the “Number of Mobile Lice/Fish Mean ± SD” value (Lepeophtheirus salmonis; [7]) was 0.1 ± 0.1 lice/fish. The “Total Number of Lice/Fish % Efficacy” value (Lepeophtheirus salmonis; [7]) was 98.4%, the “Total Number of Lice/Fish Mean ± SD” value (Lepeophtheirus salmonis; [7]) was 0.3 ± 0.3 lice/fish and the “Number of Attached Lice/Fish Mean ± SD” value (Lepeophtheirus salmonis; [8]) was 0.0 ± 0.0 lice/fish. The “Number of Mobile Lice/Fish Mean ± SD” value (Lepeophtheirus salmonis; [8]) was 0.1 ± 0.2 lice/fish, the “Total Number of Lice/Fish % Efficacy” value (Lepeophtheirus salmonis; [8]) was 99.6% and the “Total Number of Lice/Fish Mean ± SD” value (Lepeophtheirus salmonis; [8]) was 0.1 ± 0.2 lice/fish. The “Number of Attached Lice/Fish Mean ± SD” value (Lepeophtheirus salmonis; [9]) was 0.0 ± 0.0 lice/fish, the “Number of Mobile Lice/Fish % Efficacy” value (Lepeophtheirus salmonis; [9]) was 99.7% and the “Number of Mobile Lice/Fish Mean ± SD” value (Lepeophtheirus salmonis; [9]) was 0.1 ± 0.2 lice/fish. For the same compound, the “Total Number of Lice/Fish % Efficacy” value (Lepeophtheirus salmonis; [9]) was 99.7%, the “Total Number of Lice/Fish Mean ± SD” value (Lepeophtheirus salmonis; [9]) was 0.1 ± 0.2 lice/fish and the “Number of Attached Lice/Fish % Efficacy” value (Lepeophtheirus salmonis; [10]) was 93.8%. The “Number of Attached Lice/Fish Mean ± SD” value (Lepeophtheirus salmonis; [10]) was 0.2 ± 0.3 lice/fish, the “Number of Mobile Lice/Fish % Efficacy” value (Lepeophtheirus salmonis; [10]) was 99.8% and the “Number of Mobile Lice/Fish Mean ± SD” value (Lepeophtheirus salmonis; [10]) was 0.0 ± 0.1 lice/fish. For the same compound, the “Total Number of Lice/Fish % Efficacy” value (Lepeophtheirus salmonis; [10]) was 98.8%, the “Total Number of Lice/Fish Mean ± SD” value (Lepeophtheirus salmonis; [10]) was 0.2 ± 0.4 lice/fish and the “Number of Attached Lice/Fish Mean ± SD” value (Lepeophtheirus salmonis; [11]) was 0.0 ± 0.1 lice/fish. For the same compound, the “Number of Mobile Lice/Fish % Efficacy” value (Lepeophtheirus salmonis; [11]) was 100.0%, the “Number of Mobile Lice/Fish Mean ± SD” value (Lepeophtheirus salmonis; [11]) was 0.0 ± 0.0 lice/fish and the “Total Number of Lice/Fish % Efficacy” value (Lepeophtheirus salmonis; [11]) was 99.9%. For the same compound, the “Total Number of Lice/Fish Mean ± SD” value (Lepeophtheirus salmonis; [11]) was 0.0 ± 0.1 lice/fish, the “Number of Attached Lice/Fish Mean ± SD” value (Lepeophtheirus salmonis; [12]) was 0.1 ± 0.2 lice/fish and the “Number of Mobile Lice/Fish % Efficacy” value (Lepeophtheirus salmonis; [12]) was 99.9%. The “Number of Mobile Lice/Fish Mean ± SD” value (Lepeophtheirus salmonis; [12]) was 0.1 ± 0.2 lice/fish, the “Total Number of Lice/Fish % Efficacy” value (Lepeophtheirus salmonis; [12]) was 99.6% and the “Total Number of Lice/Fish Mean ± SD” value (Lepeophtheirus salmonis; [12]) was 0.1 ± 0.2 lice/fish. For the same compound, the “efficacy compared with the lowest dosage (0.010 mg/kg/d)” value (Lepeophtheirus salmonis; dosages of 0.025, 0.050 and 0.125 mg/kg/d in medicated feed over 7 consecutive days) was “significantly higher efficacy”, the “observed minimum efficacious dosage relative to U.S. Pat. No. 9,920,037 (1.0 mg/kg/d)” value (Lepeophtheirus salmonis; medicated feed over 7 consecutive days to salmon, provisionally concluded) was 20-40 times lower and the “efficacy against chalimus and pre-adult/adult stages of the sea louse” value (Lepeophtherius salmonis) was 100%.
